Source: patent US20040224958A1, “Pyridopyrimidinone derivatives for treatment of neurodegenerative disease” (priority 2000, published 2004)

Tests used:
cdk2/cyclinA = cdk2/cyclinA (Homo sapiens, UniProt P24941); assay: Cyclin-Dependent Kinase Assay cdk2/cyclinA; conditions: cdk2/A IC50
cdk2/cyclinE = cdk2/cyclinE (Homo sapiens, UniProt P24941); assay: Cyclin-Dependent Kinase Assay cdk2/cyclinE; conditions: cdk2/E IC50
Cdk5/p25 = Cdk5/p25 (Homo sapiens, UniProt Q00535); assay: Cyclin-Dependent Kinase 5 High Throughput Screening (cdk5-HTS) Assay; assay type: biochemical; conditions: high throughput screen
In short: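 IC50 determined from 33P incorporation into GST-RbCOOH captured on glutathione plates and read by scintillation counting. Reaction: 1.0 μg/mL Cdk5/p25, 20 μM [γ33P]ATP, pH 7.4 Tris buffer with MgCl2 and DTT, 30 min at room temperature, stopped with EDTA.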

cdk4/D = cdk4/D (Homo sapiens, UniProt P11802); assay: Cyclin-Dependent Kinase 4 (cdk4) Assay; assay type: biochemical; conditions: read-out: cdk4/D IC50
cdk4/D, sequence (P11802 whole entry): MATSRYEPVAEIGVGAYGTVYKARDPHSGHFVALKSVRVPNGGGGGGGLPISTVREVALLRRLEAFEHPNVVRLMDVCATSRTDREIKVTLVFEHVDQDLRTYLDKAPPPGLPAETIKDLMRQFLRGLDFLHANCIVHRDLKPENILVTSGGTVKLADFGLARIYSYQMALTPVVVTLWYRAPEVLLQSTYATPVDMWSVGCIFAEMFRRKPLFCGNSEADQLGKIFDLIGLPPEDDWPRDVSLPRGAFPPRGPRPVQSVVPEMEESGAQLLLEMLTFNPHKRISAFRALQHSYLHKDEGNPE
cdk4/D, sequence (P24385 whole entry, further chain): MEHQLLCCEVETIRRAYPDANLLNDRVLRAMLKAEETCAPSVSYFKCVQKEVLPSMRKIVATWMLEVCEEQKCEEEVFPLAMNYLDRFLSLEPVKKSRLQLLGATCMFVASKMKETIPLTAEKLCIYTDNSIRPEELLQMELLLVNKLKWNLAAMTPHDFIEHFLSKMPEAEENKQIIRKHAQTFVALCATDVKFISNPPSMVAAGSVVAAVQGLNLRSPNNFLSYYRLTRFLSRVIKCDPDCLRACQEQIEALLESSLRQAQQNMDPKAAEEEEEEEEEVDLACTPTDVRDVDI

cdc2/cyclinB = cdc2/cyclinB (Homo sapiens, UniProt P06493); assay: Cyclin-Dependent Kinase Assay cdc2/cyclinB
cdc2/cyclinB, sequence (P06493 whole entry): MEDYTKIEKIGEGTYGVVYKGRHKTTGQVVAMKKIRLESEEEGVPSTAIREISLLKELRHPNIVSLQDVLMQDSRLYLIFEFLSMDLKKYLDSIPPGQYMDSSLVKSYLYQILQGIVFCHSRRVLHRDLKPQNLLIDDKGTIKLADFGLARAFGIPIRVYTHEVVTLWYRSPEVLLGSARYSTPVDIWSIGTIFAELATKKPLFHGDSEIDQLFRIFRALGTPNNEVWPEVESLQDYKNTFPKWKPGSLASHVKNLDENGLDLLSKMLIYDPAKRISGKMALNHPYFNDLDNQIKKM
cdc2/cyclinB, sequence (P14635 whole entry, further chain): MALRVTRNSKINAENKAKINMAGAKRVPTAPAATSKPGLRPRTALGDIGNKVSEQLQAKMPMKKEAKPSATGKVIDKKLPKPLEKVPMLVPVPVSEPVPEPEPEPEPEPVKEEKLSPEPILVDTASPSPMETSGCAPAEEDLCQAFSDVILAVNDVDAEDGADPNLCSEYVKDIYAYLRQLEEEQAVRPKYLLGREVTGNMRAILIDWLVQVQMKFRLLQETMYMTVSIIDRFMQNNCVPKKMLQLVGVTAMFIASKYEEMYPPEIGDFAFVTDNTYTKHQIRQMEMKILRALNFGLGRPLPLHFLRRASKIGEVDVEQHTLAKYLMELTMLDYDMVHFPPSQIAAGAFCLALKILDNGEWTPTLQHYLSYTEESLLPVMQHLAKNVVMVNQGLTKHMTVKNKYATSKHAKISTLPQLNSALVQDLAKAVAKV

| SMILES | IC50 (cdk2/cyclinA) [nM] | IC50 (cdk2/cyclinE) [nM] | IC50 (Cdk5/p25) [nM] | IC50 (cdk4/D) [nM] | IC50 (cdc2/cyclinB) [nM] |
| --- | --- | --- | --- | --- | --- |
| CCn1c(=O)ccc2cnc(Nc3cc(Cl)c(O)c(Cl)c3)nc21 [Example 291, 2-(3,5-Dichloro-4-hydroxy-phenylamino)-8-ethyl-8H-pyrido[2,3-d]pyrimidin-7-one] | 790 | 443 | 445 | 2050 | 440 |
| CC(C)n1c(=O)ccc2cnc(Nc3cccc([N+](=O)[O-])c3)nc21 [Example 406, 8-Isopropyl-2-(3-nitro-phenylamino)-8H-pyrido[2,3-d]pyrimidin-7-one] | 160 | 94.7 | 52.5 | 260 | 113 |
| CCC(C)n1c(=O)ccc2cnc(Nc3ccc(O)c(Cl)c3)nc21 (centres unmarked) [Example 452, 8-sec-Butyl-2-(3-chloro-4-hydroxy-phenylamino)-8H-pyrido[2,3-d]pyrimidin-7-one] | 40 | 22 | 13 | 114 | 25.5 |
| CCC(C)n1c(=O)ccc2cnc(Nc3ccc(F)c(C(F)(F)F)c3)nc21 (centres unmarked) [Example 458, 8-sec-Butyl-2-(4-fluoro-3-trifluoromethyl-phenylamino)-8H-pyrido[2,3-d]pyrimidin-7-one] | 280 | 100 | 29 | 1700 | 150 |
| CCC(CC)n1c(=O)ccc2cnc(Nc3ccc(C#N)c(NC(C)=O)c3)nc21 [Example 506, N-{2-Cyano-5-[8-(-ethyl-propyl)-7-oxo-7,8-dihydro-pyrido[2,3-d]pyrimidin-2-ylamino]-phenyl}-acetamide] | 400 | 93 | 44 | 36 | 110 |
| O=C(O)c1cc(Nc2ncc3ccc(=O)n(C4CCCC4)c3n2)ccc1O [Example 560, 5-(8-Cyclopentyl-7-oxo-7,8-dihydro-pyrido[2,3-d]pyrimidin-2-ylamino)-2-hydroxy-benzoic acid] | 220 | 370 | 490 | 910 | 450 |
| CCC(C)n1c(=O)ccc2cnc(Nc3ccc(NC(=O)OC(C)(C)C)cc3)nc21 (centres unmarked) [Example 450, [4-(8-sec-Butyl-7-oxo-7,8-dihydro-pyrido[2,3-d]pyrimidin-2-ylamino)-phenyl]-carbamic acid tert-butyl ester] | 265 | 130 | 64.5 | 113 | 140 |
| O=c1ccc2cnc(Nc3ccc(O)c(Cl)c3)nc2n1CC1CC1 [Example 567, 2-(3-Chloro-4-hydroxy-phenylamino)-8-cyclopropylmethyl-8H-pyrido[2,3-d]pyrimidin-7-one] | 54.5 | 16.3 | 31.5 | 145 | 76 |
| CC(=O)Nc1cc(Nc2ncc3ccc(=O)n(C(C)C)c3n2)ccc1C [Example 440, N-[5-(8-Isopropyl-7-oxo-7,8-dihydro-pyrido[2,3-d]pyrimidin-2-ylamino)-2-methyl-phenyl]-acetamide] | 1100 | 1500 | 440 | 150 | 1400 |
| CCCCn1c(=O)ccc2cnc(Nc3ccc4[nH]nnc4c3)nc21 [Example 380, 2-(1H-Benzotriazol-5-ylamino)-8-butyl-8H-pyrido[2,3-d]pyrimidin-7-one] | 83 | 26 | 32.5 | 285 | 59 |
| O=c1ccc2cnc(Nc3ccc(O)cc3F)nc2n1C1CCCC1 [Example 538, 8-Cyclopentyl-2-(2-fluoro-4-hydroxy-phenylamino)-8H-pyrido[2,3-d]pyrimidin-7-one] | 320 | 72.7 | 145 | 338 | 425 |
| CCCn1c(=O)ccc2cnc(Nc3ccc(F)c(C)c3)nc21 [Example 337, 2-(4-Fluoro-3-methyl-phenylamino)-8-propyl-8H-pyrido[2,3-d]pyrimidin-7-one] | 100 | 25 | 150 | 430 | 150 |
| CCC(C)n1c(=O)ccc2cnc(Nc3ccc4c(c3)CCCC4=O)nc21 (centres unmarked) [Example 470, 8-sec-Butyl-2-(5-oxo-5,6,7,8-tetrahydro-naphthalen-2-ylamino)-8H-pyrido[2,3-d]pyrimidin-7-one] | 150 | 50 | 6.1 | 110 | 67 |
| CCCCn1c(=O)ccc2cnc(Nc3cc(Cl)c(O)c(Cl)c3)nc21 [Example 384, 8-Butyl-2-(3,5-dichloro-4-hydroxy-phenylamino)-8H-pyrido[2,3-d]pyrimidin-7-one] | 98.5 | 25.7 | 91.5 | 1130 | 115 |
| CCC(CC)n1c(=O)ccc2cnc(Nc3ccc(NC(=O)OC(C)(C)C)cc3)nc21 [Example 494, {4-[8-(1-Ethyl-propyl)-7-oxo-7,8-dihydro-pyrido[2,3-d]pyrimidin-2-ylamino]-phenyl}-carbamic acid tert-butyl ester] | 440 | 127 | 72 | 230 | 102 |
| CCCCn1c(=O)ccc2cnc(Nc3cccc(I)c3)nc21 [Example 375, 8-Butyl-2-(3-iodo-phenylamino)-8H-pyrido[2,3-d]pyrimidin-7-one] | 408 | 48.9 | 84.7 | 720 | 107 |
| CC(=O)N(C)c1ccc(Nc2ncc3ccc(=O)n(C(C)C)c3n2)cc1 [Example 432, N-[4-(8-Isopropyl-7-oxo-7,8-dihydro-pyrido[2,3-d]pyrimidin-2-ylamino)-phenyl]-N-methyl-acetamide] | 420 | 390 | 60 | 150 | 540 |
| CCCCn1c(=O)ccc2cnc(Nc3ccc4c(c3)CCCC4=O)nc21 [Example 403, 8-Butyl-2-(5-oxo-5,6,7,8-tetrahydro-naphthalen-2-ylamino)-8H-pyrido[2,3-d]pyrimidin-7-one] | 230 | 39 | 23 | 93 | 73 |
| CCCn1c(=O)ccc2cnc(Nc3ccc(O)c(Cl)c3)nc21 [Example 327, 2-(3-Chloro-4-hydroxy-phenylamino)-8-propyl-8H-pyrido[2,3-d]pyrimidin-7-one] | 67 | 25 | 31 | 189 | 53 |
| CCC(CC)n1c(=O)ccc2cnc(Nc3ccc4oc(=O)[nH]c4c3)nc21 [Example 517, 8-(1-Ethyl-propyl)-2-(2-oxo-2,3-dihydro-benzoxazol-5-ylamino)-8H-pyrido[2,3-d]pyrimidin-7-one] | 56 | 29 | 18 | 130 | 62 |
| O=c1ccc2cnc(Nc3ccc(Cl)c(C(F)(F)F)c3)nc2n1C1CCCC1 [Example 546, 2-(4-Chloro-3-trifluoromethyl-phenylamino)-8-cyclopentyl-8H-pyrido[2,3-d]pyrimidin-7-one] | 1340 | 415 | 64 | 1390 | 555 |
| CCC(CC)n1c(=O)ccc2cnc(Nc3ccc(F)c(Cl)c3)nc21 [Example 481, 2-(3-Chloro-4-fluoro-phenylamino)-8-(1-ethyl-propyl)-8H-pyrido[2,3-d]pyrimidin-7-one] | 418 | 69.3 | 39.1 | 938 | 134 |
| CCC(C)n1c(=O)ccc2cnc(Nc3ccc(N(C)C(C)=O)cc3)nc21 (centres unmarked) [Example 471, N-[4-(8-sec-Butyl-7-oxo-7,8-dihydro-pyrido[2,3-d]pyrimidin-2-ylamino)-phenyl]-N-methyl-acetamide] | 530 | 220 | 49 | 120 | 340 |
| CCCCn1c(=O)ccc2cnc(Nc3ccc(C)c(C)c3)nc21 [Example 377, 8-Butyl-2-(3,4-dimethyl-phenylamino)-8H-pyrido[2,3-d]pyrimidin-7-one] | 1100 | 228 | 201 | 510 | 313 |
| O=c1ccc2cnc(Nc3ccc(F)c([N+](=O)[O-])c3)nc2n1CC1CC1 [Example 576, 8-Cyclopropylmethyl-2-(4-fluoro-3-nitro-phenylamino)-8H-pyrido[2,3-d]pyrimidin-7-one] | 490 | 460 | 410 | 420 | 650 |
| CCCCn1c(=O)ccc2cnc(Nc3cccc(C(F)(F)F)c3)nc21 [Example 373, 8-Butyl-2-(3-trifluoromethyl-phenylamino)-8H-pyrido[2,3-d]pyrimidin-7-one] | 1150 | 208 | 214 | 2150 | 430 |
| CCn1c(=O)ccc2cnc(Nc3ccc(F)c(C(F)(F)F)c3)nc21 [Example 293, 8-Ethyl-2-(4-fluoro-3-trifluoromethyl-phenylamino)-8H-pyrido[2,3-d]pyrimidin-7-one] | 1500 | 250 | 40 | 2000 | 430 |
| CCCCn1c(=O)ccc2cnc(Nc3ccc(S(N)(=O)=O)cc3)nc21 [Example 393, 4-(8-Butyl-7-oxo-7,8-dihydro-pyrido[2,3-d]pyrimidin-2-ylamino)-benzenesulfonamide] | 34 | 11 | 9.7 | 180 | 45 |
